One assay relates to pBR322 plasmid DNA. The conditions noted are these: modification with M.TaqI or M.HhaI-Q82A/N304A, cofactor 300 μM, 4 h.
Assay [1] concerns the target T1, M.HhaI-Q82A/N304A (Haemophilus parahaemolyticus, UniProt P05102, N304A/Q82A).
T1 construct: made in house
Put plainly: Modification of cytosine-C5 in duplex oligodeoxynucleotide III.IV by M.HhaI-Q82A/N304A, nucleoside analysis by HPLC/ESI-MS. The class given is biochemical. The conditions noted are these: duplex III.IV 10 μM, cofactor 300 μM, enzyme 12.5 μM, 37° C. over night. The method, then: After enzymatic transfer the duplex oligodeoxy-nucleotides were enzymatically fragmented and the resulting modified nucleosides were analyzed by reversed-phase HPLC coupled with ESI-MS.
Therefore, the codon for N304 was changed to a codon for alanine by standard Megaprimer PCR mutagenesis (Sambrook and Russell, (2001) Cold Spring Harbor Laboratory Press, 13.31-13.35) and the fragment containing this mutation was cloned into the plasmid containing the Q82A mutation (Example 2B, Example 3B.2. The correct DNA sequence of the complete gene was verified by DNA sequencing. Expression and purification of the Q82A/N304A variant was performed as described for the wild-type enzyme (Kumar et al., (1992) Biochemistry 31, 8648-8653; Klimasauskas et al., (1998) EMBO J. 17, 317-324). The presence of the amino acid substitution was verified by mass spectrometric analysis of purified M.HhaI-Q82A/N304A.
The duplex oligodeoxynucleotide III.IV (compare Scheme 6, Example 2B) was produced by mixing equal molar amounts (2.5 nmol) of complementary single-stranded oligodeoxynucleotide III (5′-[…] CTAT-3′) (SEQ ID NO. 3) and IV (5′-[…]-3′) (SEQ. ID NO. 4) in water, heating at 85° C. for 5 min and slow cooling to room temperature. […] The solution was heated to 80° C. for 10 min, supplemented with Proteinase K and incubated at 55° C. for 2 h. […]

Assay [2] concerns the target T1, M.HhaI-Q82A/N304A. Put plainly: DNA protection assay with M.HhaI variant Q82A/N304A on phage lambda DNA. The class given is biochemical. As to conditions: 1.16 μg phage lambda DNA, cofactor 300 μM, 37° C. for 1 h, enzyme from 1100 ng. The method, then:
Afterwards, the reactions were stopped by heating to 80° C. for 10 min. […] Parallel control experiments were performed with phage lambda DNA in the absence of M.HhaI-Q82A/N304A and in the presence of M.HhaI-Q82A/N304A (1100 ng).

T1 sequence (P05102 whole entry Q82A/N304A): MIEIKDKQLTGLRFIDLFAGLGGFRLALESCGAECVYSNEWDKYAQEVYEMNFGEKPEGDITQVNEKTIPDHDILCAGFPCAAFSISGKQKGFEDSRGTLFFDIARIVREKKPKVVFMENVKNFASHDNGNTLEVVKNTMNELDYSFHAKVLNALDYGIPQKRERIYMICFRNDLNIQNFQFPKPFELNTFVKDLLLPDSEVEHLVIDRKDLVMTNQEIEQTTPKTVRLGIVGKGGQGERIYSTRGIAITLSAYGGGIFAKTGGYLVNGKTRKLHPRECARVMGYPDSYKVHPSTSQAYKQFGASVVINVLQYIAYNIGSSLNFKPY

Regarding `NCCCC(=O)NCC#CC[S+](CCC(N)C(=O)O)CC1OC(n2cnc3c(N)ncnc32)C(O)C1O` (stereo not drawn) [Cofactor 10], in the assay on pBR322 plasmid DNA, the “two-step labeling of amino-modified pBR322 DNA with fluorescein N-hydroxysuccinimidyl ester” value is on record as “labeling is sequence-specific”. Moreover, at M.HhaI-Q82A/N304A [1], the “cofactor function for M.HhaI-Q82A/N304A (transfer of group Z-R to cytosine-C5)” value is listed as “functions as a cofactor”. For the same compound, the “protection of phage lambda DNA against R.Hin6I fragmentation” value at M.HhaI-Q82A/N304A [2] is “almost protected phage lambda DNA”.
